# Measurements from ChEMBL document CHEMBL3286137, “Design, synthesis and structure-activity relationships of novel 4-phenoxyquinoline derivatives containing pyridazinone moiety as potential antitumor agents” (Eur J Med Chem, 2014).
# What was measured:
# cells [1] = details: Homo sapiens, MKN-45, 72 h
# HT-29 = experiment: cells; details: Homo sapiens, HT-29, 72 h
# cells [2] = details: Homo sapiens, NCI-H460, 72 h
# A549 = experiment: cells; details: Homo sapiens, A549, 72 h
# [3] = Cytotoxicity against human U87MG cells assessed as inhibition of cell growth after 72 hrs by MTT assay; format: functional, cell-based, U-87MG ATCC; details: U-87 MG
Structure (SMILES),IC50 (cells [1]) [nM],IC50 (HT-29) [nM],IC50 (cells [2]) [nM],IC50 (A549) [nM],IC50 [3] [nM]
COc1cc2c(Oc3ccc(NC(=O)c4nn(-c5ccc(F)c(F)c5)c(=O)cc4C)cc3F)ccnc2cc1OCCCN1CCOCC1,90,160,390,320,
COc1cc2c(Oc3ccc(NC(=O)c4nn(-c5ccc(Cl)cc5)c(=O)cc4C)cc3F)ccnc2cc1OCCCN1CCC(C)CC1,150,180,370,210,1350
COc1cc2c(Oc3ccc(NC(=O)c4nn(-c5ccc(Cl)cc5Cl)c(=O)cc4C)cc3F)ccnc2cc1OCCCN1CCC(C)CC1,120,170,250,200,
COc1cc2c(Oc3ccc(NC(=O)c4nn(-c5ccccc5OC(F)(F)F)c(=O)cc4C)cc3F)ccnc2cc1OCCCN1CCN(C)CC1,100,180,260,130,1440
COc1cc2c(Oc3ccc(NC(=O)c4nn(-c5ccc(F)c(F)c5)c(=O)cc4C)cc3F)ccnc2cc1OCCCN1CCCC1,80,150,170,220,1400
COc1cc2c(Oc3ccc(NC(=O)c4nn(-c5ccc(Cl)cc5)c(=O)cc4C)cc3F)ccnc2cc1OCCCN1CCCCC1,230,360,460,320,1400
COc1ccc(-n2nc(C(=O)Nc3ccc(Oc4ccnc5cc(OCCCN6CCOCC6)c(OC)cc45)c(F)c3)c(C)cc2=O)cc1,260,1230,1770,1500,

# More lines, in order of falling IC50 (cells [1]), values ahead:
IC50 (cells [1]) [nM],IC50 (HT-29) [nM],IC50 (cells [2]) [nM],IC50 (A549) [nM],Structure (SMILES),IC50 [3] [nM]
1230,3520,3660,2200,COc1ccc(-n2nc(C(=O)Nc3ccc(Oc4ccnc5cc(OCCCN6CCN(C)CC6)c(OC)cc45)c(F)c3)c(C)cc2=O)cc1,
160,160,280,150,COc1cc2c(Oc3ccc(NC(=O)c4nn(-c5ccccc5)c(=O)cc4C)cc3F)ccnc2cc1OCCCN1CCCCC1,1370
150,260,360,230,COc1cc2c(Oc3ccc(NC(=O)c4nn(-c5ccc(Cl)cc5)c(=O)cc4C)cc3F)ccnc2cc1OCCCN1CCCC1,1430
120,170,190,130,COc1cc2c(Oc3ccc(NC(=O)c4nn(-c5ccc(F)c(F)c5)c(=O)cc4C)cc3F)ccnc2cc1OCCCN1CCN(C)CC1,
90,170,210,140,COc1cc2c(Oc3ccc(NC(=O)c4nn(-c5ccccc5C(F)(F)F)c(=O)cc4C)cc3F)ccnc2cc1OCCCN1CCCCC1,1150
90,170,200,120,COc1cc2c(Oc3ccc(NC(=O)c4nn(-c5ccccc5OC(F)(F)F)c(=O)cc4C)cc3F)ccnc2cc1OCCCN1CCOCC1,1300
60,180,210,140,COc1cc2c(Oc3ccc(NC(=O)c4nn(-c5ccccc5OC(F)(F)F)c(=O)cc4C)cc3F)ccnc2cc1OCCCN1CCCC1,1280
60,180,200,160,COc1cc2c(Oc3ccc(NC(=O)c4nn(-c5ccccc5C(F)(F)F)c(=O)cc4C)cc3F)ccnc2cc1OCCCN1CCC(C)CC1,1120
40,170,240,170,COc1cc2c(Oc3ccc(NC(=O)c4nn(-c5ccccc5C(F)(F)F)c(=O)cc4C)cc3F)ccnc2cc1OCCCN1CCN(C)CC1,1170
40,190,230,120,COc1cc2c(Oc3ccc(NC(=O)c4nn(-c5ccccc5OC(F)(F)F)c(=O)cc4C)cc3F)ccnc2cc1OCCCN1CCCCC1,1300
